Data: US10975077B2 (Novira Therapeutics, Inc., priority 2016, dated 2021)

System: HBV (encapsidated HBV DNA, HepG2.2.15 cells)
Assay: HBV replication inhibition assay, BDNA assay in HepG2.2.15 cells
Type: cell-based
Outline: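 HepG2.2.15 cells (stably integrated HBV, 40,000/well) treated with serially diluted compound in 0.5% DMSO for 6 days, medium and compound refreshed at day 3. DNase-treated supernatant lysed with proteinase K; encapsidated HBV DNA quantified by bDNA, percent inhibition versus DMSO controls, EC50 by nonlinear fit.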

[1] = Hepatitis B virus, HepG2.2.15, Activity in BDNA-assay

SMILES | EC50 [1] [nM] | EC50 (Activity in BDNA-assay) [nM]
C[C@@H]1Cc2nn3c(c2CN1C(=O)Nc1ccc(F)c(C#N)c1)C(=O)N(C)CC(F)C3 (single isomer, unassigned) [Compound 137_D1, (3R,8R*)—N-(3-cyano-4-fluorophenyl)-8-fluoro-3,10-dimethyl-11-oxo-1,3,4,7,8,9,10,11-octahydro-2H-pyrido[4′,3′:3,4]pyrazolo[1,5-a][1,4]diazepine-2-carboxamide_D1] | 1 to 100 | 
C[C@@H]1Cc2nn3c(c2CN1C(=O)Nc1ccc(F)c(C#N)c1F)C(=O)N(C)CC(CO)C3 (single isomer, unassigned) [Compound 088_D1, (3R,8S*)—N-(3-cyano-2,4-difluorophenyl)-8-(hydroxymethyl)-3,10-dimethyl-11-oxo-1,3,4,7,8,9,10,11-octahydro-2H-pyrido[4′,3′:3,4]pyrazolo[1,5-a][1,4]diazepine-2-carboxamide] | 1 to 100 | 
CCC(O)C1CN(C)C(=O)c2c3c(nn2C1)CCN(C(=O)Nc1ccc(F)c(C(F)(F)F)c1F)C3 (single isomer, unassigned) [Compound 103_E1, (R*)—N-(2,4-difluoro-3-(trifluoromethyl)phenyl)-8-((S*)-1-hydroxypropyl)-10-methyl-11-oxo-1,3,4,7,8,9,10,11-octahydro-2H-pyrido[4′,3′:3,4]pyrazolo[1,5-a][1,4] diazepine-2-carboxamide] | 1 to 100 | 
C[C@@H]1Cc2nn3c(c2CN1C(=O)Nc1ccc(F)c(C#N)c1)C(=O)N(C)C[C@@H](COCC(F)F)C3 [Compound 134_D1, (3R,8R)—N-(3-Cyano-4-fluorophenyl)-8-((2,2-difluoroethoxy)methyl)-3,10-dimethyl-11-oxo-1,3,4,7,8,9,10,11-octahydro-2H-pyrido[4′,3′:3,4]pyrazolo[1,5-a][1,4]diazepine-2-carboxamide] | 1 to 100 | 
C[C@@H]1Cc2nn3c(c2CN1C(=O)Nc1ccc(F)c(Cl)c1F)C(=O)N(C)CC(CO)C3 (single isomer, unassigned) [Compound 089_D1, (3R,8S*)—N-(3-chloro-2,4-difluorophenyl)-8-(hydroxymethyl)-3,10-dimethyl-11-oxo-1,3,4,7,8,9,10,11-octahydro-2H-pyrido[4′,3′:3,4]pyrazolo[1,5-a][1,4]diazepine-2-carboxamide] | 1 to 100 | 
CNC1CN(C)C(=O)c2c3c(nn2C1)CCN(C(=O)Nc1ccc(F)c(Cl)c1)C3 (centres unmarked) [Compound 050, N-(3-chloro-4-fluorophenyl)-10-methyl-8-(methylamino)-11-oxo-1,3,4,7,8,9,10,11-octahydro-2H-pyrido[4′,3′:3,4]pyrazolo[1,5-a][1,4]diazepine-2-carboxamide] | 100 to 500 | 
C[C@@H]1Cc2nn3c(c2CN1C(=O)Nc1ccc(F)c(C(F)(F)F)c1)C(=O)N(C)CC(C)(C)C3 [Compound 140, (R)-N-(4-Fluoro-3-(trifluoromethyl)phenyl)-3,8,8,10-tetramethyl-11-oxo-1,3,4,7,8,9,10,11-octahydro-2H-pyrido[4′,3′:3,4]pyrazolo[1,5-a][1,4]diazepine-2-carboxamide] | 1 to 100 | 
CCC(O)C1CN(C)C(=O)c2c3c(nn2C1)CCN(C(=O)Nc1ccc(F)c(Br)c1)C3 [Compound 102_E1, (R*)—N-(3-bromo-4-fluorophenyl)-8-((S)-1-hydroxypropyl)-10-methyl-11-oxo-1,3,4,7,8,9,10,11-octahydro-2H-pyrido[4′,3′:3,4]pyrazolo[1,5-a][1,4]diazepine-2-carboxamide] | 1 to 100 | 
C[C@@H]1Cc2nn3c(c2CN1C(=O)Nc1ccc(F)c(Br)c1)C(=O)N(CC(F)F)CCC3 [Compound 074, (R)—N-(3-bromo-4-fluorophenyl)-10-(2,2-difluoroethyl)-3-methyl-11-oxo-1,3,4,7,8,9,10,11-octahydro-2H-pyrido[4′,3′:3,4]pyrazolo[1,5-a][1,4]diazepine-2-carboxamide] | 1 to 100 | 
Cn1c(C(=O)O)cn2nc3c(c2c1=O)CN(C(=O)Nc1ccc(F)c(Cl)c1)CC3 [Compound 042, 2-((3-chloro-4-fluorophenyl)carbamoyl)-9-methyl-10-oxo-1,2,3,4,9,10-hexahydropyrido[4′,3′:3,4]pyrazolo[1,5-a]pyrazine-8-carboxylic acid] | > 1000 | 
CCC(O)C1CN(C)C(=O)c2c3c(nn2C1)CC(C)N(C(=O)Nc1ccc(F)c(Br)c1)C3 [Compound 109_D2, (3R,8R*)—N-(3-bromo-4-fluorophenyl)-8-((R)-1-hydroxypropyl)-3,10-dimethyl-11-oxo-1,3,4,7,8,9,10,11-octahydro-2H-pyrido[4′,3′:3,4]pyrazolo[1,5-a][1,4]diazepine-2-carboxamide] |  | 1 to 100
CN1CC(CN2CCCCC2)Cn2nc3c(c2C1=O)CN(C(=O)Nc1ccc(F)c(Cl)c1)CC3 (centres unmarked) [Compound 064, N-(3-chloro-4-fluorophenyl)-10-methyl-11-oxo-8-(piperidin-1-ylmethyl)-1,3,4,7,8,9,10,11-octahydro-2H-pyrido[4′,3′:3,4]pyrazolo[1,5-a][1,4]diazepine-2-carboxamide] | 100 to 500 | 
CN1CC(CNCC(F)F)Cn2nc3c(c2C1=O)CN(C(=O)Nc1cc(Cl)c(F)cc1F)CC3 (single isomer, unassigned) [Compound 126_E1, (R*)—N-(5-chloro-2,4-difluorophenyl)-8-(((2,2-difluoroethyl)amino)methyl)-10-methyl-11-oxo-1,3,4,7,8,9,10,11-octahydro-2H-pyrido[4′,3′:3,4]pyrazolo[1,5-a][1,4]diazepine-2-carboxamide] | 100 to 500 | 
C[C@@H]1Cc2nn3c(c2CN1C(=O)Nc1ccc(F)c(C(F)(F)F)c1)C(=O)N(C)CC(CO)C3 (single isomer, unassigned) [Compound 081_D2, (3R,8R*)—N-(4-fluoro-3-(trifluoromethyl)phenyl)-8-(hydroxymethyl)-3,10-dimethyl-11-oxo-3,4,8,9,10,11-hexahydro-1H-pyrido[4′,3′:3,4]pyrazolo[1,5-a][1,4]diazepine-2 (7H)-carboxamide] |  | 1 to 100
CCC(O)C1CN(C)C(=O)c2c3c(nn2C1)CCN(C(=O)Nc1cc(Cl)c(F)cc1F)C3 (single isomer, unassigned) [Compound 096_E2, (S*)—N-(5-chloro-2,4-difluorophenyl)-8-((R*)-1-hydroxypropyl)-10-methyl-11-oxo-1,3,4,7,8,9,10,11-octahydro-2H-pyrido[4′,3′:3,4]pyrazolo[1,5-a][1,4]diazepine-2-carboxamide] | 100 to 500 | 
CCC(O)C1CN(C)C(=O)c2c3c(nn2C1)CCN(C(=O)Nc1ccc(F)c(Cl)c1)C3 (centres unmarked) [Compound 035] | 1 to 100 | 
CN1CC(CN2CCOCC2)Cn2nc3c(c2C1=O)CN(C(=O)Nc1ccc(F)c(Cl)c1)CC3 (centres unmarked) [Compound 063, N-(3-chloro-4-fluorophenyl)-10-methyl-8-(morpholinomethyl)-11-oxo-1,3,4,7,8,9,10,11-octahydro-2H-pyrido[4′,3′:3,4]pyrazolo[1,5-a][1,4]diazepine-2-carboxamide] | 1 to 100 | 
C[C@@H]1Cc2nn3c(c2CN1C(=O)Nc1ccc(F)c(Br)c1F)C(=O)N(C)CC(CO)C3 (single isomer, unassigned) [Compound 084_D1, (3R,8S*)—N-(3-bromo-2,4-difluorophenyl)-8-(hydroxymethyl)-3,10-dimethyl-11-oxo-1,3,4,7,8,9,10,11-octahydro-2H-pyrido[4′,3′:3,4]pyrazolo[1,5-a][1,4]diazepine-2-carboxamide] |  | 100 to 500
CN1CC(C)(CO)Cn2nc3c(c2C1=O)CN(C(=O)Nc1ccc(F)c(Cl)c1)CC3 (centres unmarked) [Compound 053, N-(3-chloro-4-fluorophenyl)-8-(hydroxymethyl)-8,10-dimethyl-11-oxo-1,3,4,7,8,9,10,11-octahydro-2H-pyrido[4′,3′:3,4]pyrazolo[1,5-a][1,4]diazepine-2-carboxamide] | 1 to 100 | 
CNC(=O)C1CN(C)C(=O)c2c3c(nn2C1)CCN(C(=O)Nc1ccc(F)c(Cl)c1)C3 (centres unmarked) [Compound 031, N2-(3-chloro-4-fluorophenyl)-N8,10-dimethyl-11-oxo-1,3,4,7,8,9,10,11-octahydro-2H-pyrido[4′,3′:3,4]pyrazolo[1,5-a][1,4]diazepine-2,8-dicarboxamide] | 1 to 100 | 
CN1CC(N2CC(F)(F)C2)Cn2nc3c(c2C1=O)CN(C(=O)Nc1ccc(F)c(Cl)c1)CC3 (centres unmarked) [Compound 022, N-(3-chloro-4-fluorophenyl)-8-(3,3-difluoroazetidin-1-yl)-10-methyl-11-oxo-1,3,4,7,8,9,10,11-octahydro-2H-pyrido[4′,3′:3,4]pyrazolo[1,5-a][1,4]diazepine-2-carboxamide] | 100 to 500 | 
CN1CC(N2CCC(F)(F)CC2)Cn2nc3c(c2C1=O)CN(C(=O)Nc1ccc(F)c(Cl)c1)CC3 (centres unmarked) [Compound 056, N-(3-chloro-4-fluorophenyl)-8-(4,4-difluoropiperidin-1-yl)-10-methyl-11-oxo-1,3,4,7,8,9,10,11-octahydro-2H-pyrido[4′,3′:3,4]pyrazolo[1,5-a][1,4]diazepine-2-carboxamide] | 100 to 500 | 
CCC(O)C1CN(C)C(=O)c2c3c(nn2C1)CC(C)N(C(=O)Nc1ccc(F)c(Br)c1)C3 [Compound 109_D1, (3R,8 S*)—N-(3-bromo-4-fluorophenyl)-8-((R)-1-hydroxypropyl)-3,10-dimethyl-11-oxo-1,3,4,7,8,9,10,11-octahydro-2H-pyrido[4′,3′:3,4]pyrazolo[1,5-a][1,4]diazepine-2-carboxamide] | 1 to 100 | 
